From patent publication US20050054620A1, “Paricalcitol as a chemotherapeutic agent” (priority 2003, published 2005)
Entries after “also recorded” stand apart in the source; their conditions may differ.

Legend:
NCI-H929 cells = assay: TUNEL assay of apoptosis; assay type: cell-based, human; details: for apoptotic cells by TUNEL assay: 0.01 μM each, 3 days
Method: In FIG. […] Results represent the mean±SD of three independent experiments. A TUNEL assay was performed for immunohistochemical detection and quantification of programmed cell death at the single cell level, based on labeling of DNA strand breaks using the In Situ Cell Death Detection, POD (Roche, Indianapolis, Ind.). Early apoptosis was also detected by measuring annexin V protein in the cell membrane using Annexin V-FITC Kit (CLONTECH, Palo Alto, Calif.) followed by flow cytometric analysis.

HL-60 cells [1] = assay: NBT reduction (monocytic differentiation); assay type: cell-based, human; details: paricalcitol 0.01 μM, arsenic trioxide 0.8 μM, 3 days
NB-4 cells [2] = assay: CD14 expression by flow cytometry; assay type: cell-based, human; details: paricalcitol 0.1 μM, arsenic trioxide 0.6 μM, 3 days
wild type U937 cells = assay: CD14 expression by flow cytometry; assay type: cell-based, human; details: paricalcitol 0.01 μM, arsenic trioxide 0.4 μM
Text: To examine the association between the presence of the fusion protein and the effect of the combination treatment, an engineered U937 monocytic leukemia cell line (PR9) that has stable integration of the PML-RARa cDNA under the control of the Zn^2+-inducible murine metallothionein 1 promoter was used. Also used were U937 cells transfected with the MT vector (B41) as a control.

HL-60 cells [3] = assay: Western blot of cell lysates; assay type: cell-based, human; details: for phosphorylation of Rb / expression of Bax / expression of C/EBPβ: 3 days; for expression of Bax / expression of C/EBPβ / expression of phosphorylated-ERK: paricalcitol 0.01 μM, arsenic trioxide 0.8 μM; for expression of phosphorylated-ERK: peak after 1 day
Method: Western blot analysis was used to determine the levels of proteins involved in cell cycle and differentiation. For western blot analysis, cells were washed twice in PBS, suspended in lysis buffer [50 mM Tris (pH 8.0), 150 mM NaCl, 0.1% SDS, 0.5% sodium deoxycholate, 1% NP40, […] phenylmethylsulfonyl fluoride, […] aprotinin, […] pepstatin, and […] leupetin] and placed on ice for 30 min. After centrifugation at 15,000×g for 15 min at 4° C., the suspension was collected. Protein concentrations were quantitated using the Bio-Rad assay (Bio-Rad Labolatories, Hercules, Calif.). Whole lysates ([…]) were resolved by 4-15% SDS polyacrylamide gel, transferred to an immobilon polyvinylidene difuride membrane (Amersham Corp., Arlington Heights, Ill.), and probed sequentially with a number of antibodies (p21WAF1, p27KIP1, PTEN, and GAPDH, Santa Cruz Biotechnology Inc., Santa Cruz, Calif.). The blots were developed using the Supersignal West Pico Chemiluminescent Substrate Kit (Pierce, Rockford, Ill.).
Western blot analysis was performed as follows: cells were washed twice in PBS, suspended in lysis buffer (50 mM Tris at pH 8.0, 150 mM NaCl, 0.1% SDS, 0.5% sodium deoxycholate, 1% Nonidet P-40, phenylmethylsulfonyl fluoride at 100 μg/mL, aprotinin at 2 μg/mL, pepstatin at 1 μg/mL, and leupetin at 10 μg/mL), and placed on ice for 30 minutes. After centrifugation at 15,000×g for 15 minutes at 4° C., the suspension was collected. Protein concentrations were quantitated by using the Bio-Rad protein Assay Dye Reagent Concentrate (Bio-Rad Laboratories, Hercules, Calif.) according to the manufacture's recommendation. Whole cell lysates (40 μg) were resolved by SDS-polyacrylamide gel electrophoresis in a 4%-15% gel, transferred to a polyvinylidene difuride membrane (Immobilon, Amersham Corp., Arlington Heights, Ill.), and probed sequentially with antibodies against the following proteins: VDR, RXR, CEBPβ, Rb, Bcl-2, Bcl-XL, Bax, p-ERK, RARA, GAPDH (Santa Cruz Biotechnology Inc., Santa Cruz, CA). The blots were developed using the Supersignal West Pico Chemiluminescent Substrate Kit (Pierce, Rockford, Ill.).

[4] = system: HL-60 myeloid leukemia cells; assay: MTT assay; assay type: cell-based, human; details: 4 days exposure
24-hydroxylase = target: T1, 24-hydroxylase (Homo sapiens, UniProt Q07973); assay: 24-hydroxylase activity by level of 24.25(OH)2D3 in NB-4 cells; assay type: cell-based; set-up: endogenous in cells; details: paricalcitol 0.1 μM, arsenic trioxide 0.6 μM, 3 days
T1 sequence (Q07973 36-514): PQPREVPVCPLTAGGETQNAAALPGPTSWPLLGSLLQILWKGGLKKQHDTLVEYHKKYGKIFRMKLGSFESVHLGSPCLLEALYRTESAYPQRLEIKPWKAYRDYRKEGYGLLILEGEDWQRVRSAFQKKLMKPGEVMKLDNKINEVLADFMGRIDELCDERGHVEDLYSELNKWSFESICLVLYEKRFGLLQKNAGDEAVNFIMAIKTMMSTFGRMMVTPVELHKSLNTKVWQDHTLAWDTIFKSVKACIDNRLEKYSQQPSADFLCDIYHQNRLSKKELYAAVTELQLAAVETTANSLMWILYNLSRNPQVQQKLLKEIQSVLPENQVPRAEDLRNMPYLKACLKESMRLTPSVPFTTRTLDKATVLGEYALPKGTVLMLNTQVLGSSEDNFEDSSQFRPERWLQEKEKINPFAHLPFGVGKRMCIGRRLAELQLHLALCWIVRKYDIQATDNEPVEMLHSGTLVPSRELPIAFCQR
Method: HL-60 (A) and NB-4 (B) myeloid leukemia cell lines were treated with paricalcitol (0.01 μM for HL-60, 0.1 μM for NB-4) and/or arsenic trioxide (0.8 μM for HL-60, 0.6 μM for NB-4) for 3 days. Control cells were treated with vehicle alone. The levels of 24.25(OH)2D3 were measured by HPLC analysis.
The possibility that the arsenic trioxide inactivates the mitchondrial enzyme, 24-hydroxylase leading to an activation of the response of the cells to vitamin D was tested. The activity of 24-hydroxylase was examined by measuring its metabolite, 24.25(OH)2D3 by TLC analysis in leukemia cells. HL-60 and NB-4 myeloid leukemia cell lines were treated with paricalcitol (0.01 μM for HL-60, 0.1 μM for NB-4) and/or arsenic trioxide (0.8 μM for HL-60, 0.6 μM for NB-4) for 3 days. Control cells were treated with vehicle alone. Then the levels of 24.25(OH)2D3 were measured by TLC analysis. Paricalcitol alone increased the levels of 24.25(OH)2D3 in HL-60 and NB-4, while arsenic trioxide alone decreased its level compared to control cells (FIG. 11). […] The decrease of the levels of 24-hydroxylase by arsenic trioxide may explain the enhanced activity of paricalcitol by arsenic trioxide in leukemia cells.

NB-4 cells [5] = assay: Cell cycle analysis by flow cytometry (sub-G1); assay type: cell-based, human; details: paricalcitol 0.1 μM and/or arsenic trioxide 0.6 μM, 4 days, control 4%
Method: Cell cycle analysis was performed as follows: after treatment of 5×10^4 of cells with a selected compound, cells were collected, washed and suspended in cold PBS. Cells were fixed in chilled 75% methanol and stained with propidium iodine. Cell cycle status was analyzed on a Becton Dickinson Flow Cytometer used standart protocols.

| Compound | apoptotic cells by TUNEL assay (NCI-H929 cells) | apoptotic cells (TUNEL) (NCI-H929 cells; 10^−7M, 96 hrs, diluant control 4%) [%] | monocytic differentiation by NBT reduction (HL-60 cells [1]) | CD14 expression (NB-4 cells [2]) | CD14 expressing cells (wild type U937 cells) | expression of VDR and RXR (HL-60 cells [3]) | induction of PTEN (HL-60 cells [3]; 10^−7M, 72 hr) [fold] | induction of p21WAF1 (HL-60 cells [3]; 10^−7M, 72 hr) | induction of p27KIP1 (HL-60 cells [3]; 10^−7M, 72 hr) | phosphorylation of Rb (HL-60 cells [3]) | expression of Bax (HL-60 cells [3]) | expression of C/EBPβ (HL-60 cells [3]) | expression of phosphorylated-ERK (HL-60 cells [3]) | antiproliferative effect by MTT assay [4] | levels of 24.25(OH)2D3 (24-hydroxylase) | cells in sub-G1 population (NB-4 cells [5]) [%] |
| --- | --- | --- | --- | --- | --- | --- | --- | --- | --- | --- | --- | --- | --- | --- | --- | --- |
| C[C@H](/C=C/[C@H](C)C(C)(C)O)[C@H]1CC[C@H]2/C(=C/C=C3C[C@@H](O)C[C@H](O)C3)CCC[C@]12C [paricalcitol, 19-nor-1,25, (OH)2D3] | increased | 31 | increased | did not induced CD14 expression | increased CD14 expressing monoicytic cells | not substantially changed | 7 | approximately 7 fold | about 6 fold | increased | not changed | increased | increased | suppressed the cell growth in a dose-dependent manner; also recorded: sensitive | increased | 5 |
| arsenic trioxide | increased |  | little effect on differentiation | did not induced CD14 expression | did not induce CD14 expression | not substantially changed |  |  |  | increased | not changed | also increased its expression level | also increased | suppressed the cell growth in a dose-dependent manner | decreased | 33 |
